Experimental data as given in PubChem BioAssay AID248 (DTP/NCI, 2004).
Inconclusive results and toxic doses are left out.

Tested on: L1210 leukemia ip in BDF1 mice, survival T/C
Test: NCI In Vivo Anticancer Drug Screen. Data for tumor model L1210 Leukemia (intraperitoneal) in B6D2F1 (BDF1) mice
Settings: endpoint: mean survival time, higher = longer survival
Method in brief: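 In this screen, tumor-bearing mice given compound are compared to those given vehicle, and their survival values are reported as a treated-to-control quotient.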

[1] = dose: 100.0 mg/kg/injection, schedule: Q04DX003 (ip), vehicle: saline with Tween-80
[2] = dose: 100.0 mg/kg/injection, schedule: Q04DX002 (ip), vehicle: saline
[3] = dose: 200.0 mg/kg/injection, schedule: Q04DX002 (ip), vehicle: saline
[4] = dose: 100.0 mg/kg/injection, schedule: Q01DX001 (ip), vehicle: saline
[5] = dose: 200.0 mg/kg/injection, schedule: Q01DX001 (ip), vehicle: saline
[6] = dose: 400.0 mg/kg/injection, schedule: Q01DX001 (ip), vehicle: saline
[7] = dose: 100.0 mg/kg/injection, schedule: Q01DX001 (ip), vehicle: other
[8] = dose: 200.0 mg/kg/injection, schedule: Q01DX001 (ip), vehicle: other
[9] = dose: 400.0 mg/kg/injection, schedule: Q01DX001 (ip), vehicle: other
[10] = dose: 100.0 mg/kg/injection, schedule: Q01DX009 (ip), vehicle: Klucel (hydroxypropylcellulose) (HPC)
[11] = dose: 200.0 mg/kg/injection, schedule: Q01DX009 (ip), vehicle: Klucel (hydroxypropylcellulose) (HPC)
[12] = dose: 400.0 mg/kg/injection, schedule: Q01DX009 (ip), vehicle: Klucel (hydroxypropylcellulose) (HPC)
[13] = dose: 100.0 mg/kg/injection, schedule: Q04DX002 (ip), vehicle: Klucel (hydroxypropylcellulose) (HPC)
[14] = dose: 200.0 mg/kg/injection, schedule: Q04DX002 (ip), vehicle: Klucel (hydroxypropylcellulose) (HPC)
[15] = dose: 100.0 mg/kg/injection, schedule: Q01DX009 (ip), vehicle: saline
[16] = dose: 200.0 mg/kg/injection, schedule: Q01DX009 (ip), vehicle: saline
[17] = dose: 50.0 mg/kg/injection, schedule: Q04DX002 (ip), vehicle: Klucel (hydroxypropylcellulose) (HPC)
[18] = dose: 200.0 mg/kg/injection, schedule: Q01DX009 (ip), vehicle: saline with Tween-80
[19] = dose: 400.0 mg/kg/injection, schedule: Q01DX009 (ip), vehicle: saline with Tween-80
[20] = dose: 100.0 mg/kg/injection, schedule: Q04DX003 (ip), vehicle: saline
[21] = dose: 200.0 mg/kg/injection, schedule: Q04DX003 (ip), vehicle: saline
[22] = dose: 400.0 mg/kg/injection, schedule: Q04DX003 (ip), vehicle: saline

For `Clc1ccc(Sc2ncnc3nc[nH]c23)cc1`, the T/C [1] was 102 % of control, the T/C (dose: 200.0 mg/kg/injection, schedule: Q04DX003 (ip), vehicle: saline with Tween-80) was 100 % of control and the T/C (dose: 400.0 mg/kg/injection, schedule: Q04DX003 (ip), vehicle: saline with Tween-80) was 105 % of control.
`C=C1CC(CCCCC2CC(=C)C(=O)O2)OC1=O` (stereo not given) was tested, and the T/C [2] was 108 % of control, the T/C [3] was 101 % of control and the T/C (dose: 400.0 mg/kg/injection, schedule: Q04DX002 (ip), vehicle: saline) was 108 % of control.
With `Cc1ccc(/C=N/NC(N)=S)nn1` the T/C [2] was 117 % of control and the T/C [3] was 98 % of control.
`CN(C(=O)c1cc([N+](=O)[O-])ccc1O)c1ccc([N+](=O)[O-])cc1` was tested, and the T/C [4] was 97 % of control, the T/C [5] was 95 % of control and the T/C [6] was 97 % of control.
With `CCCCSc1ncc(C)c(N(C)C)n1` the T/C (dose: 25.0 mg/kg/injection, schedule: Q01DX Z (ip), vehicle: methylcellulose (MC)) was 92 % of control and the T/C (dose: 50.0 mg/kg/injection, schedule: Q01DX Z (ip), vehicle: methylcellulose (MC)) was 89 % of control.
`Oc1[nH]c2ccccc2c1N=Nc1ccccn1` was tested, and the T/C [7] was 93 % of control, the T/C [8] was 101 % of control and the T/C [9] was 104 % of control.
In the case of `C=CCN(CC=C)c1ccccc1`, the T/C [10] is reported as 93 % of control, the T/C (dose: 100.0 mg/kg/injection, schedule: Q04DX003 (ip), vehicle: Klucel (hydroxypropylcellulose) (HPC)) is reported as 108 % of control and the T/C [11] is reported as 107 % of control. For the same compound, the T/C (dose: 200.0 mg/kg/injection, schedule: Q04DX003 (ip), vehicle: Klucel (hydroxypropylcellulose) (HPC)) was 101 % of control, the T/C [12] was 112 % of control and the T/C (dose: 400.0 mg/kg/injection, schedule: Q04DX003 (ip), vehicle: Klucel (hydroxypropylcellulose) (HPC)) was 101 % of control.
In the case of `O=C(COc1ccc(Cl)c(Cl)c1)N(Cc1ccccc1)Cc1ccc[n+](Cc2ccc(Cl)cc2S(=O)(=O)F)c1`, the T/C [13] is reported as 95 % of control, the T/C [14] is reported as 95 % of control and the T/C (dose: 400.0 mg/kg/injection, schedule: Q04DX002 (ip), vehicle: Klucel (hydroxypropylcellulose) (HPC)) is reported as 104 % of control.
In the case of `O=C(Nc1cccc(Cl)c1)Nc1ccc(Br)c(C(F)(F)F)c1`, the T/C (dose: 50.0 mg/kg/injection, schedule: Q01DX001 (ip), vehicle: carboxymethylcellulose (CMC)) is reported as 100 % of control, the T/C (dose: 100.0 mg/kg/injection, schedule: Q01DX001 (ip), vehicle: carboxymethylcellulose (CMC)) is reported as 94 % of control and the T/C (dose: 200.0 mg/kg/injection, schedule: Q01DX001 (ip), vehicle: carboxymethylcellulose (CMC)) is reported as 96 % of control. The T/C (dose: 400.0 mg/kg/injection, schedule: Q01DX001 (ip), vehicle: carboxymethylcellulose (CMC)) was 94 % of control.
`O=C(O)Cn1nnc2ccccc21` was tested, and the T/C (dose: 50.0 mg/kg/injection, schedule: Q01DX009 (ip), vehicle: saline) was 94 % of control, the T/C [15] was 249 % of control and the T/C [16] was 94 % of control.
With `COC1OC(COS(C)(=O)=O)C(O)C(OS(C)(=O)=O)C1OS(C)(=O)=O` (stereo not given) the T/C [17] was 93 % of control, the T/C [13] was 93 % of control and the T/C [14] was 101 % of control.
With `CC1=Nc2ccccc2SC(C)(C)C1` the T/C (dose: 50.0 mg/kg/injection, schedule: Q01DX001 (ip), vehicle: Klucel (hydroxypropylcellulose) (HPC)) was 98 % of control, the T/C (dose: 100.0 mg/kg/injection, schedule: Q01DX001 (ip), vehicle: Klucel (hydroxypropylcellulose) (HPC)) was 91 % of control and the T/C (dose: 200.0 mg/kg/injection, schedule: Q01DX001 (ip), vehicle: Klucel (hydroxypropylcellulose) (HPC)) was 109 % of control. The T/C (dose: 400.0 mg/kg/injection, schedule: Q01DX001 (ip), vehicle: Klucel (hydroxypropylcellulose) (HPC)) was 98 % of control.
`CCN(CC)CCN(C(=S)Nc1ccccc1)c1ccccc1` was tested, and the T/C (dose: 25.0 mg/kg/injection, schedule: Q01DX009 (ip), vehicle: Klucel (hydroxypropylcellulose) (HPC)) was 103 % of control, the T/C (dose: 50.0 mg/kg/injection, schedule: Q01DX009 (ip), vehicle: Klucel (hydroxypropylcellulose) (HPC)) was 102 % of control and the T/C [10] was 96 % of control.
`CCOC(=O)c1ccc(NC(=S)NC(=O)c2ccc(Cl)cc2Cl)cc1` was tested, and the T/C [18] was 88 % of control and the T/C [19] was 88 % of control.
For `O=C(CC(=O)c1ccccc1)c1ccccc1.O=C(CC(=O)c1ccccc1)c1ccccc1.O=C(CC(=O)c1ccccc1)c1ccccc1.[Al]`, the T/C (dose: 100.0 mg/kg/injection, schedule: Q04DX002 (ip), vehicle: gum acacia) was 100 % of control, the T/C (dose: 200.0 mg/kg/injection, schedule: Q04DX002 (ip), vehicle: gum acacia) was 97 % of control and the T/C (dose: 400.0 mg/kg/injection, schedule: Q04DX002 (ip), vehicle: gum acacia) was 90 % of control.
For `CN(C)S(=O)(=O)c1ccc(NC(=O)CCl)cc1`, the T/C [7] was 98 % of control, the T/C (dose: 100.0 mg/kg/injection, schedule: Q01DX009 (ip), vehicle: saline with Tween-80) was 106 % of control and the T/C (dose: 100.0 mg/kg/injection, schedule: Q04DX003 (ip), vehicle: other) was 97 % of control. For the same compound, the T/C [8] was 110 % of control, the T/C [18] was 102 % of control and the T/C (dose: 200.0 mg/kg/injection, schedule: Q04DX003 (ip), vehicle: other) was 103 % of control. For the same compound, the T/C [9] was 93 % of control, the T/C [19] was 100 % of control and the T/C (dose: 400.0 mg/kg/injection, schedule: Q04DX003 (ip), vehicle: other) was 98 % of control.
In the case of `CN(C)CCC1(CCN(C)C)C(=O)CCc2ccccc21`, the T/C [7] is reported as 97 % of control, the T/C [8] is reported as 103 % of control and the T/C [9] is reported as 103 % of control.
With `S=P(NCc1cccc(CNP(=S)(N2CC2)N2CC2)c1)(N1CC1)N1CC1` the T/C (dose: 75.0 mg/kg/injection, schedule: Q01DX001 (ip), vehicle: carboxymethylcellulose (CMC)) was 98 % of control, the T/C (dose: 150.0 mg/kg/injection, schedule: Q01DX001 (ip), vehicle: carboxymethylcellulose (CMC)) was 98 % of control and the T/C (dose: 300.0 mg/kg/injection, schedule: Q01DX001 (ip), vehicle: carboxymethylcellulose (CMC)) was 93 % of control.
With `CCCCC(=O)c1cc2ccccc2c2ccccc12` the T/C [4] was 94 % of control, the T/C [5] was 88 % of control and the T/C [6] was 98 % of control.
For `CNC(=O)C(C)C1C(=O)/C(=C(O)/C=C/C(C)=C\C(C)C2OC3(C)OC(C=CC34CO4)C2C)C(=O)N1C1CCC(O)C(C)O1` (stereo not given), the T/C [15] was 111 % of control, the T/C [20] was 97 % of control and the T/C [16] was 101 % of control. For the same compound, the T/C [21] was 105 % of control and the T/C [22] was 107 % of control.
`NC(=O)N/N=C/c1cccs1` was tested, and the T/C (dose: 25.0 mg/kg/injection, schedule: Q04DX003 (ip), vehicle: saline with Tween-80) was 95 % of control, the T/C (dose: 50.0 mg/kg/injection, schedule: Q04DX003 (ip), vehicle: saline with Tween-80) was 103 % of control and the T/C [1] was 106 % of control.
`O=C(NCCN1CCOCC1)Nc1cccc2c1CCCC2` was tested, and the T/C (dose: 100.0 mg/kg/injection, schedule: Q04DX002 (ip), vehicle: saline with Tween-80) was 94 % of control, the T/C (dose: 200.0 mg/kg/injection, schedule: Q04DX002 (ip), vehicle: saline with Tween-80) was 108 % of control and the T/C (dose: 400.0 mg/kg/injection, schedule: Q04DX002 (ip), vehicle: saline with Tween-80) was 116 % of control.
In the case of `CC1NNC(=O)C1c1ccc([N+](=O)[O-])cc1` (stereo not given), the T/C [4] is reported as 94 % of control, the T/C [5] is reported as 94 % of control and the T/C [6] is reported as 95 % of control.
With `Br/C=C/C1=CCCCC1` the T/C (dose: 100.0 mg/kg/injection, schedule: Q01DX009 (ip), vehicle: acetone) was 98 % of control, the T/C [20] was 97 % of control and the T/C (dose: 200.0 mg/kg/injection, schedule: Q01DX009 (ip), vehicle: acetone) was 90 % of control. For the same compound, the T/C [21] was 92 % of control and the T/C [22] was 114 % of control.
With `O=C(Cc1ccccc1)Nc1cccc(C(F)(F)F)c1` the T/C [10] was 91 % of control, the T/C [11] was 95 % of control and the T/C [12] was 98 % of control.
`CCOC(=O)c1c(C)oc(=O)c(Br)c1C` was tested, and the T/C [20] was 97 % of control, the T/C [21] was 100 % of control and the T/C [22] was 94 % of control.
`Oc1ccc(-c2cc3c(O)ccc(O)c3[nH]2)cc1` was tested, and the T/C [17] was 96 % of control, the T/C [13] was 105 % of control and the T/C [14] was 102 % of control.
With `CCOCCNCC1OC(OC)C2OC(C)(C)OC12` (stereo not given) the T/C (dose: 100.0 mg/kg/injection, schedule: Q01DX005 (ip), vehicle: saline) was 103 % of control and the T/C (dose: 200.0 mg/kg/injection, schedule: Q01DX005 (ip), vehicle: saline) was 103 % of control.
